The subject of assay [1] is Shigella flexneri intracellular motility in PtK2 cells. Conditions: cited from earlier work.
For assay [2] the test system is unchanged. Format: cell-based.
The mark [3] stands for this setting: microinjected peptide, ref Zeile et al. (1996).

Like-named read-outs stand apart in the source and are kept apart here.

FEFPPPPTDE [ActA ABM-1 peptide]: the “effect on Shigella motility” value in assay [1] (setting [3]) is on record as “arrested intracellular Shigella motility”.

As for poly- L-proline [poly-L-proline], the “effect on Shigella motility” value in assay [1] (poly-L-proline intracellular concentration 1 μM, ref Zeile et al., 1996) was “failed to inhibit motility”. On to Gly-Pro-Pro-Pro-Pro Pro [ABM-2 peptide], for which, in assay [1] (setting [3]), the “effect on Shigella motility” value is “blocks Shigella actin-based motility”.

B1: full-length vinculin: Full-length 120-kD human platelet vinculin (protein, UniProt P18206 1-1134, looked up)
Vinculin: MPVFHTRTIESILEPVAQQISHLVIMHEEGEVDGKAIPDLTAPVAAVQAAVSNLVRVGKETVQTTEDQILKRDMPPAFIKVENACTKLVQAAQMLQSDPYSVPARDYLIDGSRGILSGTSDLLLTFDEAEVRKIIRVCKGILEYLTVAEVVETMEDLVTYTKNLGPGMTKMAKMIDERQQELTHQEHRVMLVNSMNTVKELLPVLISAMKIFVTTKNSKNQGIEEALKNRNFTVEKMSAEINEIIRVLQLTSWDEDAWASKDTEAMKRALASIDSKLNQAKGWLRDPSASPGDAGEQAIRQILDEAGKVGELCAGKERREILGTCKMLGQMTDQVADLRARGQGSSPVAMQKAQQVSQGLDVLTAKVENAARKLEAMTNSKQSIAKKIDAAQNWLADPNGGPEGEEQIRGALAEARKIAELCDDPKERDDILRSLGEISALTSKLADLRRQGKGDSPEARALAKQVATALQNLQTKTNRAVANSRPAKAAVHLEGKIEQAQRWIDNPTVDDRGVGQAAIRGLVAEGHRLANVMMGPYRQDLLAKCDRVDQLTAQLADLAARGEGESPQARALASQLQDSLKDLKARMQEAMTQEVSDVFSDTTTPIKLLAVAATAPPDAPNREEVFDERAANFENHSGKLGATAEKAAAVGTANKSTVEGIQASVKTARELTPQVVSAARILLRNPGNQAAYEHFETMKNQWIDNVEKMTGLVDEAIDTKSLLDASEEAIKKDLDKCKVAMANIQPQMLVAGATSIARRANRILLVAKREVENSEDPKFREAVKAASDELSKTISPMVMDAKAVAGNISDPGLQKSFLDSGYRILGAVAKVREAFQPQEPDFPPPPPDLEQLRLTDELAPPKPPLPEGEVPPPRPPPPEEKDEEFPEQKAGEVINQPMMMAARQLHDEARKWSSKPGIPAAEVGIGVVAEADAADAAGFPVPPDMEDDYEPELLLMPSNQPVNQPILAAAQSLHREATKWSSKGNDIIAAAKRMALLMAEMSRLVRGGSGTKRALIQCAKDIAKASDEVTRLAKEVAKQCTDKRIRTNLLQVCERIPTISTQLKILSTVKATMLGRTNISDEESEQATEMLVHNAQNLMQSVKETVREAEAASIKIRTDAGFTLRWVRKTPWYQ
Regarding B1, in assay [2] (estimated intracellular 0.12 μM (identical to p90)), the “effect on bacterial migration speeds” value is “failed to cause any significant change”. For the same molecule, the “effect on Shigella intracellular motility” value in assay [2] (needle concentration 2.2 μM, estimated intracellular concentration 0.22 μM) is “failed to accelerate”.

Source of the values: article PMC2132544 (The Journal of Cell Biology, 1997).
